How the values were obtained:
full-length WT STING = molecular target: T1, full-length WT STING (Homo sapiens, UniProt Q86WV6, H232R); experiment: 3H-cGAMP filtration binding assay (WT STING); conditions: competition with tritiated cGAMP ligand, WT STING membrane
T1 construct: Full-Length STING WT [STING(1-379)H232R-gg-AviTag-gs-; made in house; host or cells: Trichoplusia ni insect cells via baculovirus (virus made in Sf21); used as a membrane preparation
Protocol: (§1) The ability of compounds to bind STING is quantified by their ability to compete with tritiated cGAMP ligand for human STING receptor membrane using a radioactive filter-binding assay. The binding assay employs STING receptor obtained from Trichoplusia ni cell membranes (T. ni; Expression Systems, cat #94-002F, www.expressionsystems.com) overexpressing full-length WT STING and tritiated cGAMP ligand.
The basic WT STING filtration assay protocol is as follows: 16 nM of [^3H] c-GAMP ligand was prepared by diluting into assay buffer, and 50 uL of this working stock was manually added to each well of the assay plate. After ligand addition, 2 uL of either titrated test compound, DMSO control (Sigma #276855), or cold cGAMP control was added to the appropriate wells using a BIOMEK FX. The serially titrated compound was prepared on a Hamilton STARPlus CORE in a 96-well plate (Greiner, #651201) using a 1:3 ten-point dose response format. […] Tritium levels for each reaction well were then measured using a PerkinElmer TopCount plate reader.
(§2) After normalization to controls, the percent activity for each compound concentration was calculated by measuring the amount of remaining radioactivity. […]

full-length HAQ STING = molecular target: T2, full-length HAQ STING (Homo sapiens, UniProt Q86WV6, G230A/H232R/R293Q/R71H); experiment: 3H-cGAMP filtration binding assay (HAQ STING); conditions: competition with tritiated cGAMP ligand, HAQ STING membrane
T2 construct: Full-Length HAQ STING [STING(1-379)R71H, G230A, H232R,; made in house; host or cells: Trichoplusia ni (Hi-Five) insect cells via baculovirus (virus made in Sf21); used as a membrane preparation
Excerpt: The ability of compounds to bind STING is quantified by the ability to compete with tritiated cGAMP ligand for human STING receptor membrane using a radioactive filter-binding assay. The binding assay employs STING receptor obtained from Hi-Five cell membranes overexpressing full-length HAQ STING prepared in-house and tritiated cGAMP ligand also purified in-house.
as §1, with “HAQ” for “WT”
The basic HAQ STING filtration assay protocol is as follows: The compounds were serially titrated by the Hamilton STARPlus CORE in a 96-well plate (Greiner, #651201) using a 1:3 ten-point dose response format. […] Tritium levels for each reaction well were then measured using a PerkinElmer TopCount plate reader.
as §2

THP1 cells = experiment: IFN-β secretion in THP1 cell culture (5 h); type: cell-based, human; conditions: 30 μM compound, 30 uM cGAMP = 100%
Protocol: The ability of compounds to stimulate the secretion of interferon-beta from THP1 cells was measured using a human IFN-β AlphaLISA kit (Perkin Elmer, Cat. No. AL265F). The basic protocol is as follows:
A Labcyte Echo 550 acoustic dispenser was used to transfer 120 nL of compound dissolved in DMSO into the wells of an empty, sterile 384-well microplate, (Corning, Cat. No. 3712). THP1 cells (American Type Culture Collection, Cat. No. TIB202) previously frozen in Recovery Medium (Life Technologies, Cat. No. 12648-010) were thawed and immediately diluted 10-fold into 37° C. assay medium (RPMI 1640+L-Glutamine & phenol red, Life Technologies, Cat. No. 11875-085; 0.5% heat inactivated fetal bovine serum, Sigma Aldrich, Cat. No. F4135; 1 mM Sodium Pyruvate, Life Technologies, Cat. No. 11360-070; lx non-essential amino acids; Life Technologies, Cat. No. 11140-050). The cell viability and count was ascertained using a Beckman Coulter V-Cell XR cell counter. The cell suspension was centrifuged at 200×g for 5 min at RT. […]
The assay was started by dispensing 40 μL of the previously prepared cell suspension into the wells of the plate containing compounds. […] The plate was then read on a Perkin Elmer Envision (λex=680 nm, λcm=570 nm). The percent effect of the AlphaLISA signal at each compound concentration was calculated based on 30 uM cGAMP positive controls and 0.3% DMSO negative controls. […]

T2 sequence (Q86WV6 with tags, fused parts or gaps R71H/G230A/H232R/R293Q): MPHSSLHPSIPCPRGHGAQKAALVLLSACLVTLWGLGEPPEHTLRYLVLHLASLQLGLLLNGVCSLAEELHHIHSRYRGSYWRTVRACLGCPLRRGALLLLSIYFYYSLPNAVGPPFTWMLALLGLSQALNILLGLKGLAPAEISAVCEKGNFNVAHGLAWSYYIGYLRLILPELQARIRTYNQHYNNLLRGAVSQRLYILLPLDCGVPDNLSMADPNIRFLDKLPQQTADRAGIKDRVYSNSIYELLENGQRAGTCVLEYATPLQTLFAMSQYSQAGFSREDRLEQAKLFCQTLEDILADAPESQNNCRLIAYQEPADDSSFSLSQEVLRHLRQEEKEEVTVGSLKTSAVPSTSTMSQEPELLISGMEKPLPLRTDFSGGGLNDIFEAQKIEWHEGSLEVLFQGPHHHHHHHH
T1 sequence (Q86WV6 with tags, fused parts or gaps H232R): as the sequence (Q86WV6 with tags, fused parts or gaps R71H/G230A/H232R/R293Q) above, with H71R, A230G, Q293R counted along it

EC50 (full-length WT STING): 0.118 µM
EC50 (full-length HAQ STING): 0.0491 µM
SMILES: Nc1nc2c(ncn2[C@@H]2O[C@@H]3COP(=O)(S)O[C@@H]4C[C@H](n5cnc6c(N)ncnc65)O[C@@H]4COP(=O)(S)O[C@H]2C3)c(=O)[nH]1 (stereo partly drawn) [Example 1, 2-amino-9-[(5S,7R,8S,12aR,14R,15aR)-14-(6-amino-9H-purin-9-yl)-2,10-dioxido-2,10-disulfanyloctahydro-12H-5,8-methanofuro[3,2-1][1,3,6,9,11,2,10]pentaoxadiphosphacyclotetradecin-7-yl]-1,9-dihydro-6H-purin-6-one]
% Effect at 30 μM relative to 2′3′-cGAMP (THP1 cells): 107%

— patent US20220024964A1, “Cyclic Di-Nucleotide Compounds as STING Agonists” (Merck Sharp & Dohme Corp., priority 2018, published 2022)
